Measured values reported in PubChem BioAssay AID1845203 (Molecular Pharmacology Branch, DTP, NCI, 2023).

Tested on: G-401 tumor spheroids, viability % test/control
Experiment: Anticancer human tumor G-401 cell line growth inhibition;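 also: spheroids exposed to compound for 7 days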;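 as to viability, T/C: 100% = DMSO vehicle-treated spheroids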
Details: spheroids with HUVEC and MSC; for IC50: curve of first compound; for viability, T/C: stronger effect = lower value
How it was run: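 Complex spheroids of malignant cells with endothelial cells and mesenchymal stem cells; agents alone or combined, from near clinical Cmax (or 10 microM if unknown) down in half-log steps, 0.25% DMSO final.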

[1] = second compound 0.003 µM, first compound 0.0316 µM
[2] = second compound 0.003 µM, first compound 0.1 µM
[3] = second compound 0.003 µM, first compound 0.316 µM
[4] = second compound 0.003 µM, first compound 1 µM
[5] = second compound 0.003 µM, first compound 3.16 µM
[6] = second compound 0.003 µM, first compound 10 µM
[7] = second compound 0.00949 µM, first compound 0.0316 µM
[8] = second compound 0.00949 µM, first compound 0.1 µM
[9] = second compound 0.00949 µM, first compound 0.316 µM
[10] = second compound 0.00949 µM, first compound 1 µM
[11] = second compound 0.00949 µM, first compound 3.16 µM
[12] = second compound 0.00949 µM, first compound 10 µM
[13] = second compound 0.03 µM, first compound 0.0316 µM
[14] = second compound 0.03 µM, first compound 0.1 µM
[15] = second compound 0.03 µM, first compound 0.316 µM
[16] = second compound 0.03 µM, first compound 1 µM
[17] = second compound 0.03 µM, first compound 3.16 µM
[18] = second compound 0.03 µM, first compound 10 µM
[19] = second compound 0.0949 µM, first compound 0.0316 µM
[20] = second compound 0.0949 µM, first compound 0.1 µM
[21] = second compound 0.0949 µM, first compound 0.316 µM
[22] = second compound 0.0949 µM, first compound 1 µM
[23] = second compound 0.0949 µM, first compound 3.16 µM
[24] = second compound 0.0949 µM, first compound 10 µM
[25] = second compound 0.3 µM, first compound 0.0316 µM
[26] = second compound 0.3 µM, first compound 0.1 µM
[27] = second compound 0.3 µM, first compound 0.316 µM
[28] = second compound 0.3 µM, first compound 1 µM
[29] = second compound 0.3 µM, first compound 3.16 µM
[30] = second compound 0.3 µM, first compound 10 µM

Molecule `CC(C)n1c(=O)n(C)c2cnc3cc(F)c(-c4ccc(OCCCN5CCCCC5)nc4)cc3c21` + CC[C@@]1(O)C(=O)OCc2c1cc1n(c2=O)Cc2cc3c(CN(C)C)c(O)ccc3nc2-1 has an IC50 (second compound 0.003 µM) of under 0.0316 µM, an IC50 (second compound 0.00949 µM) of under 0.0316 µM and an IC50 (second compound 0.03 µM) of under 0.0316 µM. The IC50 (second compound 0.0949 µM) was under 0.0316 µM, the IC50 (second compound 0.3 µM) was under 0.0316 µM and the viability, T/C [1] was 18.3%. For the same molecule, the viability, T/C [2] was 20.1%, the viability, T/C [3] was 19.8% and the viability, T/C [4] was 22.7%. It also gave a viability, T/C [5] of 16.1%, a viability, T/C [6] of 10.8% and a viability, T/C [7] of 12.9%. It also gave a viability, T/C [8] of 15.5%, a viability, T/C [9] of 14.9% and a viability, T/C [10] of 14.6%. For the same molecule, the viability, T/C [11] was 12.9%, the viability, T/C [12] was 7.82% and the viability, T/C [13] was 13.8%. The viability, T/C [14] was 11.8%, the viability, T/C [15] was 13.9% and the viability, T/C [16] was 15.1%. The viability, T/C [17] was 9.27%, the viability, T/C [18] was 4.89% and the viability, T/C [19] was 10.2%. The viability, T/C [20] was 9.71%, the viability, T/C [21] was 10.3% and the viability, T/C [22] was 12.7%. For the same molecule, the viability, T/C [23] was 8.85%, the viability, T/C [24] was 4.85% and the viability, T/C [25] was 5.28%. It also gave a viability, T/C [26] of 5.27%, a viability, T/C [27] of 5.71% and a viability, T/C [28] of 6.45%. It also gave a viability, T/C [29] of 6.65% and a viability, T/C [30] of 2.79%.
`COc1ccc([C@@H](O)c2cc(-c3ncnc4cc(N5CCOCC5)ccc34)c(F)cc2Cl)nn1` + CC[C@@]1(O)C(=O)OCc2c1cc1n(c2=O)Cc2cc3c(CN(C)C)c(O)ccc3nc2-1 was tested, and the IC50 (second compound 0.003 µM) was 0.864 µM, the IC50 (second compound 0.00949 µM) was under 0.0316 µM and the IC50 (second compound 0.03 µM) was under 0.0316 µM. For the same molecule, the IC50 (second compound 0.0949 µM) was under 0.0316 µM, the IC50 (second compound 0.3 µM) was under 0.0316 µM and the viability, T/C [1] was 84.4%. The viability, T/C [2] was 84.2%, the viability, T/C [3] was 66.6% and the viability, T/C [4] was 48.3%. It also gave a viability, T/C [5] of 23.6%, a viability, T/C [6] of 9.59% and a viability, T/C [7] of 43.5%. The viability, T/C [8] was 41.3%, the viability, T/C [9] was 40.5% and the viability, T/C [10] was 26.8%. It also gave a viability, T/C [11] of 11.7%, a viability, T/C [12] of 5.69% and a viability, T/C [13] of 16.9%. For the same molecule, the viability, T/C [14] was 15.9%, the viability, T/C [15] was 11.2% and the viability, T/C [16] was 8.51%. It also gave a viability, T/C [17] of 5.48%, a viability, T/C [18] of 3.09% and a viability, T/C [19] of 7.39%. The viability, T/C [20] was 7.68%, the viability, T/C [21] was 6.35% and the viability, T/C [22] was 5.25%. For the same molecule, the viability, T/C [23] was 3.31%, the viability, T/C [24] was 1.7% and the viability, T/C [25] was 4.49%. For the same molecule, the viability, T/C [26] was 4.63%, the viability, T/C [27] was 3.66% and the viability, T/C [28] was 2.59%. The viability, T/C [29] was 0.94% and the viability, T/C [30] was 0.33%.
`O=C(c1cc(Cc2n[nH]c(=O)c3ccccc23)ccc1F)N1CCN(C(=O)C2CC2)CC1` + COc1cc2c(cc1O)CCNC21CSC2c3c(OC(C)=O)c(C)c4c(c3C(COC1=O)N1C(O)C3Cc5cc(C)c(OC)c(O)c5C(C21)N3C)OCO4 gave an IC50 (second compound 30 pM) of 9.07 µM, an IC50 (second compound 94.9 pM) of 6.01 µM and an IC50 (second compound 0.0003 µM) of under 0.0949 µM. For the same molecule, the IC50 (second compound 0.000949 µM) was under 0.0949 µM, the IC50 (second compound 0.003 µM) was under 0.0949 µM and the viability, T/C (second compound 30 pM, first compound 0.0949 µM) was 80.3%. It also gave a viability, T/C (second compound 30 pM, first compound 0.3 µM) of 97%, a viability, T/C (second compound 30 pM, first compound 0.949 µM) of 88.3% and a viability, T/C (second compound 30 pM, first compound 3 µM) of 77.8%. The viability, T/C (second compound 30 pM, first compound 9.49 µM) was 49.1%, the viability, T/C (second compound 30 pM, first compound 30 µM) was 30.1% and the viability, T/C (second compound 94.9 pM, first compound 0.0949 µM) was 89.4%. It also gave a viability, T/C (second compound 94.9 pM, first compound 0.3 µM) of 78.8%, a viability, T/C (second compound 94.9 pM, first compound 0.949 µM) of 82.2% and a viability, T/C (second compound 94.9 pM, first compound 3 µM) of 71.5%. It also gave a viability, T/C (second compound 94.9 pM, first compound 9.49 µM) of 35.9%, a viability, T/C (second compound 94.9 pM, first compound 30 µM) of 25.7% and a viability, T/C (second compound 0.0003 µM, first compound 0.0949 µM) of 32.3%. The viability, T/C (second compound 0.0003 µM, first compound 0.3 µM) was 37.4%, the viability, T/C (second compound 0.0003 µM, first compound 0.949 µM) was 39.3% and the viability, T/C (second compound 0.0003 µM, first compound 3 µM) was 29.5%. It also gave a viability, T/C (second compound 0.0003 µM, first compound 9.49 µM) of 18.7%, a viability, T/C (second compound 0.0003 µM, first compound 30 µM) of 16.2% and a viability, T/C (second compound 0.000949 µM, first compound 0.0949 µM) of 10.1%. The viability, T/C (second compound 0.000949 µM, first compound 0.3 µM) was 5.68%, the viability, T/C (second compound 0.000949 µM, first compound 0.949 µM) was 7.52% and the viability, T/C (second compound 0.000949 µM, first compound 3 µM) was 6.02%. For the same molecule, the viability, T/C (second compound 0.000949 µM, first compound 9.49 µM) was 5.03%, the viability, T/C (second compound 0.000949 µM, first compound 30 µM) was 1.6% and the viability, T/C (second compound 0.003 µM, first compound 0.0949 µM) was 0.13%. The viability, T/C (second compound 0.003 µM, first compound 0.3 µM) was 0.15%, the viability, T/C (second compound 0.003 µM, first compound 0.949 µM) was 0.12% and the viability, T/C (second compound 0.003 µM, first compound 3 µM) was 0.18%. It also gave a viability, T/C (second compound 0.003 µM, first compound 9.49 µM) of 0.2% and a viability, T/C (second compound 0.003 µM, first compound 30 µM) of 0.24%.
